Experimental data reported in patent publication US8962674B2 (Tokyo Institute of Technology, priority 2006, dated 2015).

Work on `COCOc1c(O)cccc1/C=C/C(=O)CC(=O)/C=C/c1ccc(OC)c(O)c1` [CU248, (1E,6E)-1-[3-hydroxy-2-(methoxymethoxy)phenyl]-7-(3-hydroxy-4-methoxyphenyl)hepta-1,6-diene-3,5-dione] yielded a melting point of 79 to 83 °C.
With `O=C(/C=C/c1ccc(O)cc1)CC(=O)/C=C/c1ccccc1N1CCNCC1.O=C(O)C(F)(F)F.O=C(O)C(F)(F)F` the melting point was 139 to 150 °C.
`O=C(/C=C/c1ccc(O)cc1)CC(=O)/C=C/c1cccc2cccnc12` [CU323, (1E,6E)-1-(4-hydroxyphenyl)-7-(quinolin-8-yl)hepta-1,6-diene-3,5-dione] showed a melting point of 112 to 117 °C.
With `CN(C)c1ccc(Br)cc1/C=C/C(=O)CC(=O)/C=C/c1ccc(O)cc1` [CU534, (1E,6E)-1-(5-bromo-2-dimethylaminophenyl)-7-(4-hydroxyphenyl)hepta-1,6-diene-3,5-dione] the melting point was 68 to 72 °C.
`COc1ccc(/C=C/C(=O)CC(=O)/C=C/c2ccc3ccccc3c2)cc1O` [CU165, (1E,6E)-1-(3-hydroxy-4-methoxyphenyl)-7-(naphthalen-2-yl)hepta-1,6-diene-3,5-dione] gave a melting point of 193 to 194 °C.
Molecule `O=C(/C=C/c1ccc(O)cc1)CC(=O)/C=C/c1ccc(-n2ccnc2)cc1` [CU329, (1E,6E)-1-(4-hydroxyphenyl)-7-[4-(1H-imidazol-1-yl)phenyl]hepta-1,6-diene-3,5-dione] has a melting point of 255 to 260 °C.
With `COc1cc(/C=C/C(=O)CC(=O)/C=C/c2cccc(O)c2)ccc1O` [CU079, (1E,6E)-1-(4-hydroxy-3-methoxyphenyl)-7-(3-hydroxyphenyl)hepta-1,6-diene-3,5-dione] the melting point was 74 to 80 °C.
`COc1ccc(/C=C/C(=O)CC(=O)/C=C/c2ccc(OCCCN(C)C)cc2)cc1O` [CU241, (1E,6E)-1-[4-(3-dimethylaminopropoxy)phenyl]-7-(3-hydroxy-4-methoxyphenyl)hepta-1,6-diene-3,5-dione] showed a melting point of 183 to 186 °C.
With `COc1ccc(/C=C/C(=O)CC(=O)/C=C/c2ccc(O)c(F)c2)cc1O` [CU035, (1E,6E)-1-(3-fluoro-4-hydroxyphenyl)-7-(3-hydroxy-4-methoxyphenyl)hepta-1,6-diene-3,5-dione] the melting point was 173 to 176 °C.
Molecule `COc1cc(/C=C/C(=O)CC(=O)/C=C/c2cccc3cccnc23)ccc1O` [CU453, (1E,6E)-1-(4-hydroxy-3-methoxyphenyl)-7-(quinolin-8-yl)hepta-1,6-diene-3,5-dione] has a melting point of 83 to 87 °C.
Molecule `COc1ccc(/C=C/C(=O)CC(=O)/C=C/c2cccc3cccnc23)cc1O` [CU454, (1E,6E)-1-(3-hydroxy-4-methoxyphenyl)-7-(quinolin-8-yl)hepta-1,6-diene-3,5-dione] has a melting point of 80 to 85 °C.
`O=C(/C=C/c1ccc(O)cc1)CC(=O)/C=C/c1ccccc1-c1ccncc1` [CU514, (1E,6E)-1-(4-hydroxyphenyl)-7-[2-(pyridin-4-yl)phenyl]hepta-1,6-diene-3,5-dione] gave a melting point of 249 to 256 °C.
`COc1cc(/C=C/C(=O)CC(=O)/C=C/c2c[nH]c3cccc([N+](=O)[O-])c23)ccc1O` [CU462, (1E,6E)-1-(4-hydroxy-3-methoxyphenyl)-7-(4-nitro-1H-indol-3-yl)hepta-1,6-diene-3,5-dione] gave a melting point of 232 to 237 °C.
`CCN(CC)c1ccc(/C=C/C(=O)CC(=O)/C=C/c2ccc(O)cc2)c(OCC=C(C)C)c1` [CU426, (1E,6E)-1-(4-diethylamino-2-prenyloxyphenyl)-7-(4-hydroxyphenyl)hepta-1,6-diene-3,5-dione] showed a melting point of 69 to 76 °C.
For `COc1cc(/C=C/C(=O)C(=Cc2ccncc2)C(C)=O)ccc1O` [CU014, (5E)-6-(4-hydroxy-3-methoxyphenyl)-3-(pyridin-4-ylmethylene)hex-5-ene-2,4-dione], the melting point was 92 to 95 °C.
Molecule `CN(C)CCCOc1ccc(/C=C/C(=O)CC(=O)/C=C/c2ccc(O)cc2)cc1` [CU236, (1E,6E)-1-[4-(3-dimethylaminopropoxy)phenyl]-7-(4-hydroxyphenyl)hepta-1,6-diene-3,5-dione] has a melting point of 140 to 143 °C.
`CN(C)c1ccc(/C=C/C(=O)CC(=O)/C=C/c2ccc(O)cc2)c2ccccc12` [CU119, (1E,6E)-1-(4-dimethylaminonaphthalen-1-yl)-7-(4-hydroxyphenyl)hepta-1,6-diene-3,5-dione] gave a melting point of 82 to 86 °C.
For `O=C(/C=C/c1ccc(O)cc1)CC(=O)/C=C/c1ccc(O)cc1Cl` [CU127, (1E,6E)-1-(2-chloro-4-hydroxyphenyl)-7-(4-hydroxyphenyl)hepta-1,6-diene-3,5-dione], the melting point was 131 to 138 °C.
In the case of `COc1ccc(O)cc1/C=C/C(=O)CC(=O)/C=C/c1cc(O)ccc1OC` [CU380, (1E,6E)-1,7-bis(5-hydroxy-2-methoxyphenyl)hepta-1,6-diene-3,5-dione], the melting point is reported as 188 to 196 °C.
`COc1ccc(/C=C/C(=O)CC(=O)/C=C/c2ccc(O)cc2)cc1O` [CU027, (1E,6E)-1-(3-hydroxy-4-methoxyphenyl)-7-(4-hydroxyphenyl)hepta-1,6-diene-3,5-dione] showed a melting point of 207 to 210 °C.
`CN(C)c1ccc(C(F)(F)F)cc1/C=C/C(=O)CC(=O)/C=C/c1ccc(O)cc1` [CU535, (1E,6E)-1-(2-dimethylamino-5-trifluoromethylphenyl)-7-(4-hydroxyphenyl)hepta-1,6-diene-3,5-dione] gave a melting point of 68 to 74 °C.
For `COCOc1c(O)cccc1/C=C/C(=O)CC(=O)/C=C/c1ccc(O)cc1` [CU247, (1E,6E)-1-[3-hydroxy-2-(methoxymethoxy)phenyl]-7-(4-hydroxyphenyl)hepta-1,6-diene-3,5-dione], the melting point was 158 to 161 °C.
For `CC(C)(C)OC(=O)N1CCN(c2ccccc2/C=C/C(=O)CC(=O)/C=C/c2ccc(O)cc2)CC1` [CU499, (1E,6E)-1-{2-[4-(tert-butoxycarbonyl)piperazin-1-yl]phenyl}-7-(4-hydroxyphenyl)hepta-1,6-diene-3,5-dione], the melting point was 115 to 121 °C.
Work on `COc1ccc(/C=C/C(=O)CC(=O)/C=C/c2ccc3c(c2)OCCO3)cc1O` [CU210, (1E,6E)-1-(2,3-dihydrobenzo[1,4]dioxin-6-yl)-7-(3-hydroxy-4-methoxyphenyl)hepta-1,6-diene-3,5-dione] yielded a melting point of 163 to 165 °C.
In the case of `COc1ccc(/C=C/C(=O)CC(=O)/C=C/c2ccc3ccn(Cc4ccccc4)c3c2)cc1O` [CU444, (1E,6E)-1-(1-benzyl-1H-indol-6-yl)-7-(3-hydroxy-4-methoxyphenyl)hepta-1,6-diene-3,5-dione], the melting point is reported as 190 to 194 °C.
With `O=C(/C=C/c1cccnc1N1CCOCC1)CC(=O)/C=C/c1cccnc1N1CCOCC1` [CU366, (1E,6E)-1,7-bis(2-morpholinopyridin-3-yl)hepta-1,6-diene-3,5-dione] the melting point was 192 to 195 °C.
Work on `CCn1c2ccccc2c2cc(/C=C/C(=O)CC(=O)/C=C/c3ccc4c(c3)c3ccccc3n4CC)ccc21` [CU263, (1E,6E)-1,7-bis(9-ethyl-9H-carbazol-3-yl)hepta-1,6-diene-3,5-dione] yielded a melting point of 264 to 267 °C.
`O=C(/C=C/c1cn(Cc2ccccc2)c2ccccc12)CC(=O)/C=C/c1cn(Cc2ccccc2)c2ccccc12` [CU397, (1E,6E)-1,7-bis(1-benzyl-1H-indol-3-yl)hepta-1,6-diene-3,5-dione] gave a melting point of 206 to 213 °C.
With `O=C(/C=C/c1ccc(O)cc1)CC(=O)/C=C/c1ccccc1N1CCCC1` [CU496, (1E,6E)-1-(4-hydroxyphenyl)-7-[2-(pyrrolidin-1-yl)phenyl]hepta-1,6-diene-3,5-dione] the melting point was 73 to 80 °C.
`COc1cc(=O)oc2ccc(/C=C/C(=O)CC(=O)/C=C/c3ccc(O)cc3)cc12` [CU415, (1E,6E)-1-(4-hydroxyphenyl)-7-(4-methoxycoumarin-6-yl)hepta-1,6-diene-3,5-dione] showed a melting point of 250 to 254 °C.
Work on `O=C(/C=C/c1ccc(O)cc1)CC(=O)/C=C/c1cccc2ncccc12` [CU324, (1E,6E)-1-(4-hydroxyphenyl)-7-(quinolin-5-yl)hepta-1,6-diene-3,5-dione] yielded a melting point of 272 to 275 °C.
With `Cc1cc(/C=C/C(=O)CC(=O)/C=C/c2ccc(O)cc2)ccc1O` [CU029, (1E,6E)-1-(4-hydroxy-3-methylphenyl)-7-(4-hydroxyphenyl)hepta-1,6-diene-3,5-dione] the melting point was 197 to 199 °C.
Work on `COc1ccc(/C=C/C(=O)CC(=O)/C=C/c2ccc(O)c(OC)c2)c(O)c1` [CU256, (1E,6E)-1-(2-hydroxy-4-methoxyphenyl)-7-(4-hydroxy-3-methoxyphenyl)hepta-1,6-diene-3,5-dione] yielded a melting point of 108 to 113 °C.
`CN(C)c1cc(Br)ccc1/C=C/C(=O)CC(=O)/C=C/c1ccc(O)cc1` [CU533, (1E,6E)-1-(4-bromo-2-dimethylaminophenyl)-7-(4-hydroxyphenyl)hepta-1,6-diene-3,5-dione] showed a melting point of 74 to 81 °C.
Molecule `COc1cc(/C=C/C(=O)CC(=O)/C=C/c2cc(OC)c(OC)c(OC)c2)ccc1O` [CU006, (1E,6E)-1-(4-hydroxy-3-methoxyphenyl)-7-(3,4,5-trimethoxyphenyl)hepta-1,6-diene-3,5-dione] has a melting point of 80 to 83 °C.
Work on `COc1ccc(/C=C/C(=O)CC(=O)/C=C/c2ccc(N(C)C)c3ccccc23)cc1O` [CU168, (1E,6E)-1-(4-dimethylaminonaphthalen-1-yl)-7-(3-hydroxy-4-methoxyphenyl)hepta-1,6-diene-3,5-dione] yielded a melting point of 146 to 150 °C.
Work on `O=C(/C=C/c1ccc(O)cc1)CC(=O)/C=C/c1c[nH]cn1` [CU157, (1E,6E)-1-(4-hydroxyphenyl)-7-(1H-imidazol-4-yl)hepta-1,6-diene-3,5-dione] yielded a melting point of 168 to 172 °C.
Molecule `COc1cc(/C=C/C(=O)CC(=O)/C=C/c2cc(Cl)cc(Cl)c2O)ccc1O` [CU021, (1E,6E)-1-(3,5-dichloro-2-hydroxyphenyl)-7-(4-hydroxy-3-methoxyphenyl)hepta-1,6-diene-3,5-dione] has a melting point of 185 to 188 °C.
Work on `CCN(CC)c1ccc(/C=C/C(=O)CC(=O)/C=C/c2ccc(O)cc2)c(OCc2ccc(C(C)(C)C)cc2)c1` [CU452, (1E,6E)-1-[2-(4-tert-butylbenzyloxy)-4-diethylaminophenyl]-7-(4-hydroxyphenyl)hepta-1,6-diene-3,5-dione] yielded a melting point of 187 to 190 °C.
